Measured values published in patent publication US8039501B2, “Synephrine derivatives useful as anti-inflammatory agents” (Universiteit Gent, priority 2005, dated 2011).

Biological target: T1, glucocorticoid receptor (GR) (Homo sapiens, UniProt P04150)
T1 construct: endogenous in cells; host or cells: primary fibroblast-like synoviocytes from RA patients
T1 sequence (P04150 1-777): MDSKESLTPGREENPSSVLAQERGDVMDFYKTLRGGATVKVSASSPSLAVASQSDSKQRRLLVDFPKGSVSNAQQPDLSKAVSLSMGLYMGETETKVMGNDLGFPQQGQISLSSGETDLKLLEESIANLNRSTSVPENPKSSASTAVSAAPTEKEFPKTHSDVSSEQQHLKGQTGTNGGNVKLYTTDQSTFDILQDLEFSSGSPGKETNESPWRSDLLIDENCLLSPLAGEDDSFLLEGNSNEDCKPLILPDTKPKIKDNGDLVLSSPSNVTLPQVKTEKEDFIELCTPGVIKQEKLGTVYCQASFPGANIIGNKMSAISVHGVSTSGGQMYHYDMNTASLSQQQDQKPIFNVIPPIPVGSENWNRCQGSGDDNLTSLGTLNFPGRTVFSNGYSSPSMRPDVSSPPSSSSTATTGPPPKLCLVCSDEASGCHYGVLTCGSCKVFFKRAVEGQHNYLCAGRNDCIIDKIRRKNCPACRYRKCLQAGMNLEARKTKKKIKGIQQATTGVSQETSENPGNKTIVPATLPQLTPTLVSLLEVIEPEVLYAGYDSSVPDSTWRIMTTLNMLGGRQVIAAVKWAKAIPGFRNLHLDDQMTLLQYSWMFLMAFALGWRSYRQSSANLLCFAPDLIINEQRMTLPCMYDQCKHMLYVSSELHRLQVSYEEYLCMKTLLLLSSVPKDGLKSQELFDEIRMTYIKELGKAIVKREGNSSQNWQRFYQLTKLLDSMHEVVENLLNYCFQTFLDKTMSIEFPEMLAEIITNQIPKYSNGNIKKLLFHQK
Assay: Western blot of homologous down-regulation of GR in FLS
Assay type: cell-based
Details: 10 μM, 3, 6, 9 or 24 hours, FIG. 22A
Protocol: CpdA was synthesized as described previously. […] They were sacrificed and livers were isolated. […] Gene expression of HPRT was used for normalization. […] Gene expression of HPRT was used for normalization. […] Gene expression of HPRT was used for normalization. Statistical significance was determined by one way anova. […] Gene expression of HPRT was used for normalization. […] Gene expression of HPRT was used for normalization. Statistical significance was determined by one way anova. […] Statistical significance was determined with a Kruskal-Wallis test.
Western blot analysis was performed on total protein extracts with an anti-GR(H-300) antibody. The detection of ERK was used as a loading control. After 8 days of treatment liver samples were taken from the PBS, DEX (20 μg) or CpdA (300 μg) treated DBA/1 mice (FIG. 22B). Q-PCR was performed for the detection of GR in the different samples. Statistical significance was determined with a Mann-Whitney Test. FLS were pre-treated with solvent, DEX (1 μM) or CpdA (10 μM) for 1 hour (set-up 1) or 24 hours (set-up 2), as indicated in the figures. Afterwards, TNF (2000 units/ml) was added for 6 h. Western blot analysis was performed on total extracts with an anti-GR(H-300) antibody (FIG. 19A). Detection of ERK was used as a loading control. […] Statistical significance was determined by one way anova. […]

Structure (SMILES): CNCC(Cl)c1ccc(OC(C)=O)cc1.Cl (stereo not shown) [CpdA, 2-(4-acetoxyphenyl)-2-chloro-N-methyl-ethylammonium chloride]
- Ligand-induced down-regulation of the glucocorticoid receptor (GR): does not evoke a ligand-induced down-regulation of the glucocorticoid receptor (GR)
